Measurements as given in ChEMBL document CHEMBL6109041, “Docking and structure activity relationship studies of potent and selective thiazolidinethione GSK-3 inhibitors” (Bioorg Med Chem Lett, 2025).
pIC50: −log10 of the molar value.

Assays:
[1] = target: T1, Glycogen synthase kinase-3 beta (Homo sapiens, UniProt P49841); test: Inhibition of GSK3beta (unknown origin)
Target sequence in this assay (P49841 whole entry): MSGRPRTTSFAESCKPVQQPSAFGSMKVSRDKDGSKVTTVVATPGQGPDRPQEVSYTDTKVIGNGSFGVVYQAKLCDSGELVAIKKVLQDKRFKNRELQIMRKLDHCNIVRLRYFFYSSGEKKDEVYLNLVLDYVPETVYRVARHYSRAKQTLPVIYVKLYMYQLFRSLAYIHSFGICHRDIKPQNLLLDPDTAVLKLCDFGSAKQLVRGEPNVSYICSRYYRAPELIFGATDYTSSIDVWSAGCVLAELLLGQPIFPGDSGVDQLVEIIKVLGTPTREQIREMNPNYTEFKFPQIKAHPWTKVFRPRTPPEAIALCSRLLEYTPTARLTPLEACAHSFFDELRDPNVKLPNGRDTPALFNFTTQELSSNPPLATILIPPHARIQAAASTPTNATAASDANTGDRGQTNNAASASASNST

[2] = target: T1, Glycogen synthase kinase-3 beta; test: Inhibition of GSK3beta (unknown origin) at 2 uM relative to control
Target sequence in this assay (P49841 whole entry, looked up): as the sequence (P49841 whole entry) above

[3] = target: T2, Glycogen synthase kinase-3 alpha (Homo sapiens, UniProt P49840); test: Inhibition of GSK3alpha (unknown origin)
Target sequence in this assay (P49840 whole entry): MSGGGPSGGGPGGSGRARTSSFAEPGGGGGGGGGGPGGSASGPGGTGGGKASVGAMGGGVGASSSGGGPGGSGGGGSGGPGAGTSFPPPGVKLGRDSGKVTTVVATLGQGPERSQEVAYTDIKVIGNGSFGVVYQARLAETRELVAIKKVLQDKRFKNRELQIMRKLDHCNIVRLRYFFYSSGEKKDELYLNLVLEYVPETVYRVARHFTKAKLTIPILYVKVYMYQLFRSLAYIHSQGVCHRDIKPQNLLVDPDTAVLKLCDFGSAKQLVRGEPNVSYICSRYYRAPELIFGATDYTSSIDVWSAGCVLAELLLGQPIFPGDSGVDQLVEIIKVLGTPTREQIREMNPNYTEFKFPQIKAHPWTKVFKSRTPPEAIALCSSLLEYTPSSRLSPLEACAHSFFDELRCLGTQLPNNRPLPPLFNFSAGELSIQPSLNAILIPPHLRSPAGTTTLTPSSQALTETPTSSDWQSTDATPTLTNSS

[4] = target: T2, Glycogen synthase kinase-3 alpha; test: Inhibition of GSK3alpha (unknown origin) at 2 uM relative to control
Target sequence in this assay (P49840 2-483 limits assumed): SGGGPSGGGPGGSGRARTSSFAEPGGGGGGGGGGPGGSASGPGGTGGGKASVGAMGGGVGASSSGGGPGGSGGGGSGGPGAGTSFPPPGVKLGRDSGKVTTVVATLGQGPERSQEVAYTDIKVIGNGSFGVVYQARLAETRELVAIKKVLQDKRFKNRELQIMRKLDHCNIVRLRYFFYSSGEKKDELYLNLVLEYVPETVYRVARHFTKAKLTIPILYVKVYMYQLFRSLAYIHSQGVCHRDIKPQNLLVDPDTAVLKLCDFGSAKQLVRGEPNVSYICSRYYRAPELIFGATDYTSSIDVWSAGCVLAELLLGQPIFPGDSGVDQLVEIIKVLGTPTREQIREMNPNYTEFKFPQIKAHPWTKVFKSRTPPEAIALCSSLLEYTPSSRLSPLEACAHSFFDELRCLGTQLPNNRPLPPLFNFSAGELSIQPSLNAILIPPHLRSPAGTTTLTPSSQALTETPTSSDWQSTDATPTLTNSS

OC1(c2ccccc2)CSC(=S)N1Cc1ccncc1 (stereo not drawn)
pIC50 [1]: 7.91
inhibition [2]: > 90%
pIC50 [3]: 7.74
inhibition [4]: > 90%

OC1(c2ccccc2)CSC(=S)N1Cc1ccccn1 (stereo not drawn)
pIC50 [1]: < 5.00
pIC50 [3]: < 5.00

OC1(c2ccccc2)CSC(=S)N1Cc1ccccc1 (stereo not drawn)
pIC50 [1]: < 5.00
pIC50 [3]: < 5.00
